From patent publication US20220088017A1, “COMPOSITIONS AND METHODS FOR TREATING VIRAL INFECTIONS” (priority 2020, published 2022)

System: coronavirus (COVID-19)
Assay: Observational case: older coronavirus contact with impending right heart failure treated with statin
Format: in vivo
Settings: person
Text: An older person developed signs and symptoms of vascular inflammation and right heart failure. This included occasional headaches, flashes in vision, general fatigue, irritability, muscle pains, epigastric pain, general abdominal distention, inability to eat and circulatory congestion, salty or blood taste in sputum. […] The impending right heart failure was thought to be secondary to myocarditis, circulatory congestion due to poor blood flow as a result of vascular inflammation and sticky walls of blood vessels. The contact was within 6 hours having intermittent chest pains, sweating, and dizziness. Cardiac arrest was thought to be a possible poor outcome leading to mortality. The medical team discussed interventions necessary with statins, with the intention of reducing blood sticking to blood vessels. […] The patient commenced treatment immediately with good results in 3 days' time. The abdominal swelling which was A sign of right heart failure subsided, abdominal pain reduced and the patient was able to eat with circulatory congestion eased.

[1] = 20 mg daily, with OMEGA 3 based vitamin oil

Compound: CC(C)c1nc(N(C)S(C)(=O)=O)nc(-c2ccc(F)cc2)c1/C=C/[C@@H](O)C[C@@H](O)CC(=O)O [rosuvastatin]
- right heart failure outcome (coronavirus contact, 20 mg daily for two weeks, concomitantly with OMEGA 3 based vitamin oil daily): prevented this patient from going into right heart failure
- circulation (coronavirus contact, 20 mg daily for two weeks, with OMEGA 3 based vitamin oil): restored circulation
- abdominal swelling (sign of right heart failure) [1]: subsided
- time to good results after start of treatment [1]: 3 days
